Results: US9820483B2, “Microbial composition” (Rohm and Haas Company, priority 2011, dated 2017)

Experiments:
S. aureus ATCC 6538 = assay: Synergy of terpinyl alcohols with phenolic compounds in water, 15 seconds contact, plate count log reduction; type: cell-based, Staphylococcus aureus; settings: […] alone
Method: Liquid actives were used directly. Solid actives were dissolved in alcohol and a 50% stock was made.
The culture was grown overnight in Tryptone soya agar. It was suspended in saline (0.85% NaCl) to a con. of 1.5×10^8-5×10^8 cells/ml
To 9 ml water the actives were added to give the desired concentration. 1 ml of the culture was added and mixed. After 15 seconds contact 1 ml aliquot was removed and added to a neutraliser and kept for 5 minutes. A control of untreated cells was similarly processed. It was then diluted and plated. The plates were incubated at 37° C. for 24 hours. The colonies on the plates were counted. The counts were converted to log10. The log. no. of survivors was determined and log reduction calculated.

[1] = system: Staphylococcus aureus (10788 strain); assay: Antimicrobial efficacy of actives against S. aureus in water, 15 seconds contact, NMBS; type: cell-based
Method: Selected materials were also tested against a representative Gram positive Staphylococcus aureus.
The following assay describes the testing of 8 materials using 6 dilutions across half of a 96-well micro titre plate (MTP). Using this approach it is possible to assay 16 actives (without replicates) with one full dilution plate, replicating this set up in two halves of the plate columns, 1-6 and 7-12.
Bacterial stock (30 μl) was then added to the prepared 270 μl of the solution of actives in the Screening Plate and mixed, using a multichannel pipette with 8 tips to aspirate and dispense the same volume of bacterial stock in parallel to 8 wells in rows A-H. After a contact time of 15 seconds, the mixtures were quenched by transferring 30 μl volumes of the mixtures into the 270 μl D/E neutralising solution in the prepared dilution plate, using aspiration to mix. After exactly 5 minutes in the D/E neutralising solution, […] were transferred from column 1 to column 2 of the Dilution MTP and mixed, before transferring further 30 μl volumes from column 2 into column 3. This process was repeated serially diluting the bacteria across the plate to column 6.
30 μl volumes from each well in the Dilution MTP were transferred onto pre-labelled segment of Tryptone Soya Agar (TSA) plates starting from the lowest bacterial concentration (highest dilution, column 6) to the highest bacterial concentration (column 1). The TSA plates were allowed to stand for ca. 2 hours so that the 30 μl inocula spots could dry and the plates were then inverted and incubated overnight at 37° C. before enumerating the bacterial colonies at the labelled dilutions to determine the effects of the actives on bacterial growth.
Mean bacterial survival numbers NMBS (expressed in Log CFU/ml) are obtained by first determining the segment of the TSA plate where the number of bacterial colonies is countable. From the colony number in this segment. NMBS is calculated by the formula: NMBS=log {Ncol·10^DF·100/3} Here, Ncol is the colony count, and DF is the dilution factor taken from the MTP-well corresponding to the TSA plate segment (i.e. DF may range from 1 for the quench, to 6 for the highest dilution). The factor 100/3 is a conversion factor from the volume of the inocula spot to one milliliter.
Every assay test was performed in triplicate.
Thus, a value of NMBS as of about 7 corresponds to a count of about […] from the fifth dilution well, i.e. with DF=5. Such a count of about 7 is generally observed when bacteria are exposed to non-biocidal materials. In case no surviving colonies are observed in any segment of the TSA plate, this is interpreted as complete kill and a value of NMBS=0 is reported.
S. aureus Bacterial stock was prepared as shown below and the antibacterial efficacy of the active was carried out as explained earlier for E. Coli.
An overnight culture of Staphylococcus aureus (10788 strain) was inoculated onto a Tripticase Soy Agar (TSA) plate and grown for ca. 18 hrs at 37° C. The culture of S. aureus was washed from the plate using sterile saline (0.85% NaCl) solution and a sterile spreader and suspended in 50 ml saline. This suspension was separated into equal volumes and centrifuged at 4000 rpm for 15 minutes. Following centrifugation the pellet was re-suspended in saline to give a final concentration of 0.35 OD620 equivalent to about 10^8 cells per milliliter for this particular organism. Here. OD620 indicates the absorbance of a sample in a cuvette of 1.0 cm path length at a wavelength of 620 nm. This bacterial stock was used for assaying against antimicrobial actives (in triplicate).

E. coli ATCC #10536 = assay: Synergy test: high resolution MBC microtiter plate assay in phosphate buffer containing 35% dipropylene glycol, 15 seconds contact; type: cell-based, Escherichia coli; settings: E. coli 10536, complete kill in 15 seconds, phosphate buffer with 35% DPG
From the text: One measure of synergy is the industrially accepted method described by Kull, F. C.; Eisman. P. C.; Sylwestrowicz, H. D. and Mayer, R. L., in Applied Microbiology 9:538-541 (1961), using the ratio determined by the formula: Qa/QA÷Qb/QB=Synergy Index (“SI”) wherein: QA=concentration of compound A (first component) in percent, acting alone, which produced an end point (MBC of Compound A). […]=concentration of compound A in percent, in the mixture, which produced an end point. QB=concentration of compound B (second component) in percent, acting alone, which produced an end point (MBC of Compound B). Qb=concentration of compound B in percent, in the mixture, which produced an end point.
When the sum of Qa/QA and Qb/QB is greater than one, antagonism is indicated. […] The lower the SI, the greater is the synergy shown by that particular mixture. The minimum biocidal concentration (MBC) of a microbicide is the lowest concentration tested under a specific set of conditions that provides complete kill of the tested microorganisms.
Synergy tests were conducted using standard microtiter plate assays with phosphate buffer containing 35% dipropylene glycol (DPG). In this method, a wide range of combinations of chemicals was tested by conducting high resolution MBC assays of Component (A) in the presence of various concentrations of Component (B). High resolution MBCs were determined by adding varying amounts of microbicide to one column of a microtiter plate and doing subsequent ten-fold dilutions using an automated liquid handling system to obtain a series of closely spaced endpoints. The MBC plate was inoculated one column at a time with the test microorganism. An aliquot of the inoculated well was transferred at 15 seconds to a plate containing a neutralizing agent (D/E Neutralizing Broth), mixed and held for 5 minutes before being transferred to a growth plate containing trypticase soy broth (TSB). The TSB plate was incubated at 37° C. and read for the presence/absence of growth at 24 hours. The lowest level tested that provided complete kill (as evidenced by no growth in the microtitre plate) of the test organisms in 15 seconds is the minimum biocidal concentration (MBC).
The synergy of the combinations of the present invention was determined against a bacterium, Esherichia coli (E. coli—ATCC #10536), at a concentration of approximately 1×10^8 bacteria per mL. This microorganism is representative of natural contaminants in many consumer and industrial applications.

## C=C(C)C1CCC(C)C(O)C1 (stereo not shown) [2-methyl-5-(prop-1-en-2-yl)cyclohexanol]
S. aureus ATCC 6538
  Log reduction S. aureus ATCC 6538: −0.15
[1]; 0.5% w/v alone, S. aureus, 15 s
  NMBS: 7.34 log CFU/ml
[1]; component alone, against S. aureus, in water
  MBC: >1.5 % w/v
E. coli ATCC #10536
  MBC of the component acting alone (QA or QB; Qa or Qb with the other component at 0): 0.5 weight %
